Structures are written as SMILES.

The target in this test is T1, mGluR5 receptor (Sus scrofa, UniProt I3LUI7).
T1 construct: 450 μg of protein from brain homogenate with 5 nM ^3[H]-MPEP; from tissue; host or cells: pig brain halves without medulla, cerebellum and pons
Briefly: [3H]-MPEP mGluR5 receptor binding assay (pig brain homogenate). The settings on record: 10 μM compound, 5 nM [3H]-MPEP, read-out: % Inhibition of mGluR5 Receptor (pig) [^3H]-MPEP Bond at 10 μM. The protocol: I. Method for Determining the Inhibition of the [^3H]-MPEP Bond in the mGluR5 Receptor Binding Assay
Pig brain homogenate is produced by homogenizing (Polytron PT 3000, Kinematica AG, 10 000 rpm for 90 seconds) pig brain halves without medulla, cerebellum and pons in pH 8.0 buffer (20 mM Hepes, Sigma, order no. H3375+1 complete tablet, 100 ml, Roche Diagnostics, order no. 1836145) in the ratio of 1:20 (brain weight/volume) and differential centrifuging at 900×g and 40 000×g. In incubation batches of 250 μl in 96-well microtitre plates 450 μg of protein from brain homogenate with 5 nM ^3[H]-MPEP (Tocris, order no. R1212) (MPEP=[…]) and the compounds to be examined (10 μM in test) in buffer (as above) are respectively incubated at room temperature for 60 minutes.
The batches are then filtered using a Brandel cell harvester (Brandel, Robotic 9600) on unifilter plates with fibreglass filter mats (Perkin Elmer, order no. 6005177) and then washed with buffer (as above) 3-times each with 250 μl per sample. The filter plates are then dried for 60 mins. at 55° C. Then, 30 μL of Ultima Gold™ scintillator (Packard BioScience, order no. 6013159) are added per well and after 3 hours the samples are measured on the β-counter (MicroBeta, Perkin Elmer). The non-specific binding is determined by adding 10 μM of MPEP (Tocris, order no. 1212).

T1 sequence (I3LUI7 19-1212): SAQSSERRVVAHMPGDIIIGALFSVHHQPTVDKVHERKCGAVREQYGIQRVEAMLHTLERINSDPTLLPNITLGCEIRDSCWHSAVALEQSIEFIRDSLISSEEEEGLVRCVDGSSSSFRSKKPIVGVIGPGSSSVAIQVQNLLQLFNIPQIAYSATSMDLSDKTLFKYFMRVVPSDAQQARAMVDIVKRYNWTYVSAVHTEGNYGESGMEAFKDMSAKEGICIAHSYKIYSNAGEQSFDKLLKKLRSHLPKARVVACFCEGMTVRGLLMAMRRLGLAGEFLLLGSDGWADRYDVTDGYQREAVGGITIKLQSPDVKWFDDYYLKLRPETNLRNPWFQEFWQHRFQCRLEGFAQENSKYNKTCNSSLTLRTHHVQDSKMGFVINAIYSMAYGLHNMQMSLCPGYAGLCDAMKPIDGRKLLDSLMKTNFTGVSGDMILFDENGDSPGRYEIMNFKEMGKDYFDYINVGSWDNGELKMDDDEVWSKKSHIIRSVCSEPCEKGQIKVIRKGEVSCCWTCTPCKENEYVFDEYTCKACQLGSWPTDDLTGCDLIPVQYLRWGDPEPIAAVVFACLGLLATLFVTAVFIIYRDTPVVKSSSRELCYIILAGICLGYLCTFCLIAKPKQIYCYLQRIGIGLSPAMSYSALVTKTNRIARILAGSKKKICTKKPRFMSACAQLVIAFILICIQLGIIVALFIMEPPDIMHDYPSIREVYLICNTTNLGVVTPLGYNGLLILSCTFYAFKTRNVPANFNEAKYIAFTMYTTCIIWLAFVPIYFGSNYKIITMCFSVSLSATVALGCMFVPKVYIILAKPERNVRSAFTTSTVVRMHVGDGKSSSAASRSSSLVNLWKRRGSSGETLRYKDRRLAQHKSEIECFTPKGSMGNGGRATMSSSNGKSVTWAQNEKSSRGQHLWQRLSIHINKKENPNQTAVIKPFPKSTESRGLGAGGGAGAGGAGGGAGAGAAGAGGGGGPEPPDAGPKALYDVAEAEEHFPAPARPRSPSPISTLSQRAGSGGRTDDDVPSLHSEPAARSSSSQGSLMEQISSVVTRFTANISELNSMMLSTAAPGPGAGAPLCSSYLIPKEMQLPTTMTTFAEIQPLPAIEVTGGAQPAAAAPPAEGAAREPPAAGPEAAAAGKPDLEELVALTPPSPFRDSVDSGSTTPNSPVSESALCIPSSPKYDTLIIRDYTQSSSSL

As to `CC(C)CN(Cc1cccc(-c2ccc3ncnc(N4CCOCC4)c3c2)c1)C(=O)c1cnccn1` [Example 13, pyrazine-2-carboxylic acid isobutyl-[3-(4-morpholin-4-yl-quinazolin-6-yl)-benzyl]-amide], the inhibition (as a rule, the relative decrease from the control value, in per cent) at 10 µM is 36%.

As for `Cc1ccc(C(=O)N(Cc2cccc(-c3ccc4ncnc(N5CCOCC5)c4c3)c2)CC(C)C)cc1` [Example 22, N-isobutyl-4-methyl-N-[3-(4-morpholin-4-yl-quinazolin-6-yl)-benzyl]-benzamide], the inhibition at 10 µM is 32%.

Regarding `CC(C)CN(Cc1cccc(-c2ccc3ncnc(N4CCOCC4)c3c2)c1)C(=O)c1cccs1` [Example 29, thiophene-2-carboxylic acid isobutyl-[3-(4-morpholin-4-yl-quinazolin-6-yl)-benzyl]-amide], the inhibition at 10 µM is 46%.

As to `CC(C)CN(Cc1cccc(-c2ccc3ncnc(N4CCOCC4)c3c2)c1)C(=O)CN(C)C` [Example 31, 2-dimethylamino-N-isobutyl-N-[3-(4-morpholin-4-yl-quinazolin-6-yl)-benzyl]-acetamide], the inhibition at 10 µM came to 32%.

For the compound `CC(C)Nc1ncnc2ccc(-c3cccc(CN(Cc4ccccc4)C(=O)c4ccccc4)c3)cc12` [Example 36, N-benzyl-N-[3-(4-isopropylamino-quinazolin-6-yl)-benzyl]-benzamide], the inhibition at 10 µM worked out at 42%.

Consider `CC(C)Nc1ncnc2ccc(-c3cccc(CN(Cc4ccccc4)C(=O)c4ccc(C#N)cc4)c3)cc12` [Example 44, N-benzyl-4-cyano-N-[3-(4-isopropylamino-quinazolin-6-yl)-benzyl]-benzamide], for which the inhibition at 10 µM was determined as 37%.

For the compound `CC(C)Nc1ncnc2ccc(-c3cccc(CN(Cc4ccccc4)C(=O)c4cnccn4)c3)cc12` [Example 45, pyrazine-2-carboxylic acid benzyl-[3-(4-isopropylamino-quinazolin-6-yl)-benzyl]-amide], the inhibition at 10 µM turned out to be 48%.

`CC(C)Nc1ncnc2ccc(-c3cccc(CN(Cc4ccccc4)C(=O)c4ccsc4)c3)cc12` [Example 50, thiophene-3-carboxylic acid benzyl-[3-(4-isopropylamino-quinazolin-6-yl)-benzyl]-amide]: the inhibition at 10 µM was 30%.

Regarding `CC(C)Nc1ncnc2ccc(-c3cccc(CN(Cc4ccccc4)C(=O)CC#N)c3)cc12` [Example 53, N-benzyl-2-cyano-N-[3-(4-isopropylamino-quinazolin-6-yl)-benzyl]-acetamide], the inhibition at 10 µM amounted to 38%.

For the compound `Cc1ccc(C(=O)N(Cc2ccccc2)Cc2cccc(-c3ccc4ncnc(NC(C)C)c4c3)c2)cc1` [Example 54, N-benzyl-N-[3-(4-isopropylamino-quinazolin-6-yl)-benzyl]-4-methyl-benzamide], the inhibition at 10 µM turned out to be 47%.

Take `CCN(CC)c1ncnc2ccc(-c3cccc(CN(C)C(=O)C=Cc4ccccc4)c3)cc12` [Example 62, N-[3-(4-diethylamino-quinazolin-6-yl)-benzyl]-N-methyl-3-phenyl-acrylamide]: the inhibition at 10 µM is 43%.

With `CCN(CC)c1ncnc2ccc(-c3cccc(CN(C)C(=O)Cc4ccccn4)c3)cc12` [Example 68, N-[3-(4-diethylamino-quinazolin-6-yl)-benzyl]-N-methyl-2-pyridin-2-yl-acetamide], the inhibition at 10 µM turned out to be 30%.

For the compound `CCN(CC)c1ncnc2ccc(-c3cccc(CN(C)C(=O)c4cccc(C#N)c4)c3)cc12` [Example 69, 3-cyano-N-[3-(4-diethylamino-quinazolin-6-yl)-benzyl]-N-methyl-benzamide], the inhibition at 10 µM came out at 38%.

For the compound `CCN(CC)c1ncnc2ccc(-c3cccc(CN(C)C(=O)c4ccsc4)c3)cc12` [Example 70, thiophene-3-carboxylic acid [3-(4-diethylamino-quinazolin-6-yl)-benzyl]-methyl-amide], the inhibition at 10 µM was found to be 34%.

For the compound `CCN(CC)c1ncnc2ccc(-c3cccc(CN(C)C(=O)c4ccc(C)cc4)c3)cc12` [Example 75, N-[3-(4-diethylamino-quinazolin-6-yl)-benzyl]-4,N-dimethyl-benzamide], the inhibition at 10 µM is 32%.

In the case of `CCCN(Cc1cccc(-c2ccc3ncnc(Nc4ccccc4)c3c2)c1)C(=O)c1ccccc1` [Example 89, N-[3-(4-phenylamino-quinazolin-6-yl)-benzyl]-N-propyl-benzamide], the inhibition at 10 µM worked out at 52%.

Take `CCCN(Cc1cccc(-c2ccc3ncnc(Nc4ccccc4)c3c2)c1)C(=O)COc1ccccc1` [Example 90, 2-phenoxy-N-[3-(4-phenylamino-quinazolin-6-yl)-benzyl]-N-propyl-acetamide]: the inhibition at 10 µM is 44%.

As to `CCCN(Cc1cccc(-c2ccc3ncnc(Nc4ccccc4)c3c2)c1)C(=O)c1ccc(C)cc1` [Example 91, 4-methyl-N-[3-(4-phenylamino-quinazolin-6-yl)-benzyl]-N-propyl-benzamide], the inhibition at 10 µM is 54%.

For `CCCN(Cc1cccc(-c2ccc3ncnc(Nc4ccccc4)c3c2)c1)C(=O)c1ccncc1` [Example 92, N-[3-(4-phenylamino-quinazolin-6-yl)-benzyl]-N-propyl-isonicotinamide], the inhibition at 10 µM is 74%.

As to `CCCN(Cc1cccc(-c2ccc3ncnc(Nc4ccccc4)c3c2)c1)C(=O)c1ccc(C(F)(F)F)cc1F` [Example 93, 2-fluoro-N-[3-(4-phenylamino-quinazolin-6-yl)-benzyl]-N-propyl-4-trifluoromethyl-benzamide], the inhibition at 10 µM was determined as 38%.

`CCCN(Cc1cccc(-c2ccc3ncnc(Nc4ccccc4)c3c2)c1)C(=O)c1ccc(OC)cc1` [Example 94, 4-methoxy-N-[3-(4-phenylamino-quinazolin-6-yl)-benzyl]-N-propyl-benzamide]: the inhibition at 10 µM is 75%.

Take `CCCN(Cc1cccc(-c2ccc3ncnc(Nc4ccccc4)c3c2)c1)C(=O)c1ccccn1` [Example 95, pyridine-2-carboxylic acid [3-(4-phenylamino-quinazolin-6-yl)-benzyl]-propyl-amide]: the inhibition at 10 µM turned out to be 61%.

For the compound `CCCN(Cc1cccc(-c2ccc3ncnc(Nc4ccccc4)c3c2)c1)C(=O)c1cc2ccccc2cn1` [Example 100, isoquinoline-3-carboxylic acid [3-(4-phenylamino-quinazolin-6-yl)-benzyl]-propyl-amide], the inhibition at 10 µM was found to be 36%.

`CCCN(Cc1cccc(-c2ccc3ncnc(Nc4ccccc4)c3c2)c1)C(=O)c1cnccn1` [Example 104, pyrazine-2-carboxylic acid [3-(4-phenylamino-quinazolin-6-yl)-benzyl]-propyl-amide]: the inhibition at 10 µM came to 48%.

In the case of `CCCN(Cc1cccc(-c2ccc3ncnc(Nc4ccccc4)c3c2)c1)C(=O)Cc1ccccn1` [Example 106, N-[3-(4-phenylamino-quinazolin-6-yl)-benzyl]-N-propyl-2-pyridin-2-yl-acetamide], the inhibition at 10 µM came out at 39%.

Consider `CCCN(Cc1cccc(-c2ccc3ncnc(Nc4ccccc4)c3c2)c1)C(=O)c1ccsc1` [Example 108, thiophene-3-carboxylic acid [3-(4-phenylamino-quinazolin-6-yl)-benzyl]-propyl-amide], for which the inhibition at 10 µM amounted to 31%.

`CCCN(Cc1cccc(-c2ccc3ncnc(Nc4ccccc4)c3c2)c1)C(=O)c1sccc1C` [Example 110, 3-methyl-thiophene-2-carboxylic acid [3-(4-phenylamino-quinazolin-6-yl)-benzyl]-propyl-amide]: the inhibition at 10 µM was 43%.

Take `CCCN(Cc1cccc(-c2ccc3ncnc(Nc4ccccc4)c3c2)c1)C(=O)c1ccc(O)nc1` [Example 111, 6-hydroxy-N-[3-(4-phenylamino-quinazolin-6-yl)-benzyl]-N-propyl-nicotinamide]: the inhibition at 10 µM was found to be 46%.

`CCCN(Cc1cccc(-c2ccc3ncnc(Nc4ccccc4)c3c2)c1)C(=O)CC#N` [Example 112, 2-cyano-N-[3-(4-phenylamino-quinazolin-6-yl)-benzyl]-N-propyl-acetamide]: the inhibition at 10 µM turned out to be 33%.

For the compound `CCCC(=O)N(CCC)Cc1cccc(-c2ccc3ncnc(Nc4ccccc4)c3c2)c1` [Example 115, N-[3-(4-phenylamino-quinazolin-6-yl)-benzyl]-N-propyl-butyramide], the inhibition at 10 µM was 50%.

With `CCCN(Cc1cccc(-c2ccc3ncnc(Nc4ccccc4)c3c2)c1)C(=O)c1cccs1` [Example 116, thiophene-2-carboxylic acid [3-(4-phenylamino-quinazolin-6-yl)-benzyl]-propyl-amide], the inhibition at 10 µM turned out to be 47%.

Turning to `CCCN(Cc1cccc(-c2ccc3ncnc(Nc4ccccc4)c3c2)c1)C(=O)c1cccnc1` [Example 117, N-[3-(4-phenylamino-quinazolin-6-yl)-benzyl]-N-propyl-nicotinamide], the inhibition at 10 µM was 68%.

Regarding `CCCN(Cc1cccc(-c2ccc3ncnc(Nc4ccccc4)c3c2)c1)C(=O)c1ccccc1Cl` [Example 119, 2-chloro-N-[3-(4-phenylamino-quinazolin-6-yl)-benzyl]-N-propyl-benzamide], the inhibition at 10 µM stood at 52%.
